“Also recorded” adds a separate entry of the source. Where two headings read alike, the source gives them in different places.
Tests used:
rhodopsin [1] = target: T1, rhodopsin (Bos taurus, UniProt P02699); assay: SMFS cleavage experiment: ROS membranes digested with endoproteinase Glu-C, fraction of curves by length; parameters: total number of curves obtained from the uncleaved native Rh sample; from tissue; host or cells: bovine retina ROS membranes, treated with endoproteinase Glu-C (Roche Applied Science); species or system bovine
Protocol: For cleavage experiments, ROS membranes (2 mg/mL) resuspended in Ringer's buffer (10 mM Hepes, 130 mM NaCl, 3.6 mM KCl, 2.4 mM MgCl2, 1.2 mM CaCl2, 0.02 mM EDTA, pH 7.4) were treated with endoproteinase Glu-C (Roche Applied Science, Indianapolis, Ind., USA) at a substrate to enzyme ratio of 10:1 (w/w). Membranes were digested with the enzyme for 2 h at room temperature and 1.5 h on ice. The reaction was terminated by washing membranes three times with Ringer's buffer containing 5 mM benzamidine (1 mL) and one time with buffer A (1 mL). Membranes were resuspended in buffer A for SMFS studies. For solubilization of rhodopsin (Rh), ROS membranes were resuspended in 20 mM BTP, 150 mM NaCl, 1% n-dodecyl-β-D-maltoside, pH 7.4. The membrane suspension was shaken at room temperature for 10 min and then centrifuged to remove insoluble material at 164,000×g for 30 min. Protein concentration was determined using the Bradford Protein Assay Kit from Bio-Rad Laboratories (Hercules, Calif., USA).
As mentioned above the molecule could detach from the AFM stylus during unfolding. Therefore, for the cleavage experiments with endoproteinase Glu-C it is important to be certain that the <40 nm length force-distance curves are mainly from the N-terminal fragment of the molecule and not from the detached molecule. […]
Target sequence in this assay (P02699 whole entry): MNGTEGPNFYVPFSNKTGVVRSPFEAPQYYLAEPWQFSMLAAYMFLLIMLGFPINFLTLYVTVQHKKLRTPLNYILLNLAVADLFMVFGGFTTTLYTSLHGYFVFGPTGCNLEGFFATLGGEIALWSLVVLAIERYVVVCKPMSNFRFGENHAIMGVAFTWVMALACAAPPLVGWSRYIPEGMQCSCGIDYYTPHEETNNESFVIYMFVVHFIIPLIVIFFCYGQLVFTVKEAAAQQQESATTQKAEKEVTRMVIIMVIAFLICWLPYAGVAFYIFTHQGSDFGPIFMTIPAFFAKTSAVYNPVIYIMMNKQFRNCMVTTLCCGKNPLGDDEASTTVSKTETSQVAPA
Target sequence in this assay (P02699 240-341 limits assumed): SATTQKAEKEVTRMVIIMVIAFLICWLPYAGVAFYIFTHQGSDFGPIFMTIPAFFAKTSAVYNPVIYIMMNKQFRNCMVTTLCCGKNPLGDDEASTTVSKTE

rhodopsin [2] = target: T1, rhodopsin; assay: Single-molecule force spectroscopy (AFM) unfolding of rhodopsin in native ROS disc membranes: unfolding forces and pathways; parameters: ROS were purified from fresh bovine retinas as described [33]; from tissue; host or cells: bovine retina, rod outer segment (ROS) disc membranes; species or system bovine
Target sequence in this assay (P02699 whole entry): as the sequence (P02699 whole entry) above

[3] = target: T2, rhodopsin Cys110-Cys187 disulfide bond (Bos taurus, UniProt P02699); assay: SMFS of rhodopsin: ratio of 65 nm (intact Cys110-Cys187 bond) to 95 nm (absent bond) force-distance curves; parameters: species or system bovine; settings: for effect on ratio of intact to broken Cys110-Cys187 disulfide bonds (65 nm vs 95 nm rhodopsin): increasing Zn^2+ concentrations, FIG. 4
T2 construct: ROS were purified from fresh bovine retinas as described [33]; from tissue; host or cells: bovine retina, rod outer segment (ROS) disc membranes
Source text: This is due to the fact that the loop not unraveled by SMFS in the Cys110-Cys187 form is unfolded in the 95 nm form.
These force spectra were obtained in substantial absence of zinc, since EDTA was used in the preparation of the ROS disc membranes.
The ratio of the Cys110-Cys187 rhodopsin force-distance curves and the 95 nm rhodopsin force-distance curves was changed in the presence of dithiothreitol and N-ethylmaleimide. The ratio of the 65 nm curves to the 95 nm curves was 1:2 in the presence of dithiothreitol and 7:1 in the presence of N-ethylmaleimide. Dithiothreitol likely disrupts the Cys110-Cys187 disulfide bond, and N-ethylmaleimide alkylates Cys 185. The action of these two compounds likely occurs during the unfolding of rhodopsin, since the residues modified by these reagents are not accessible in the native structure of the protein, as can be judged from the known crystal structure of rhodopsin.
AFM imaging and force spectroscopy were performed as described elsewhere. Disc membranes were adsorbed onto a freshly cleaved mica surface as described previously. For force measurements, the AFM stylus was approached to the Rh surface while applying a constant force of ˜1 nN. After a contact time of ˜0.5-1 s, the stylus was retracted from the membrane surface at a constant velocity of 300 nm/s. All experiments were performed in 150 mM KCl, 25 mM MgCl2, 20 mM Tris, pH 7.8, at room temperature. In experiments where rhodopsin was treated with 1 mM EDTA (Sigma), ZnCl2 (Fisher Scientific), CaCl2, CdCl2, CoCl2, or CuCl2, the buffer was supplemented with the specified amounts of the reagent and the pH adjusted to 7.8. When assayed with 0, 10, 25, 50, 100, 200 and 400 μM ZnCl2, rhodopsin in native ROS disc membranes was diluted in the dilution buffer with the required amount of ZnCl2 and incubated on ice for ˜40 mins—1 h in complete darkness. In the case of other metal ions the sample preparation was carried out in a similar way. In the experiment where 1 mM EDTA was used, 25 mM MgCl2 was not added to the buffer. All dilutions were carried out under dim red light and experiments performed in a completely dark room. Force curves were collected over a period of less than 1 h to prevent bleaching of rhodopsin. The red laser on the AFM promoted minimal bleaching of Rh. ROS membranes solubilized in n-dodecyl-β-D-maltoside were bleached less than 5% after incubation under the AFM laser for 1 hr.
In the first step, the force-distance curves were separated based on their lengths. […] The number of extended amino acid residues at each peak was then calculated using the contour length obtained from the WLC fits. […] To measure the unfolding force and probability of unfolding for each individual structural segment, every event of each curve was analyzed.

[4] = 200 μM metal ion in buffer, FIG. 3A
[5] = dark state rhodopsin, native ROS disc membranes
[6] = in the presence of N-ethylmaleimide

T2 sequence (P02699 whole entry): as above

Molecule: endoproteinase Glu-C: protease (Roche Applied Science) used to digest ROS membranes in cleavage experiments
- fraction of short curves (<40 nm) of the total curves (rhodopsin [1]; digested sample (untreated sample 23%)): 55%
- fraction of ≈65 nm and ≈95 nm long curves (rhodopsin [1]; enzymatically treated sample): 2%

Molecule: [Cl-].[Cl-].[Zn+2] [zinc, ZnCl2]
- effect on stability of rhodopsin segments (difference in unfolding force relative to 0 μM Zn^2+) (rhodopsin [2]; [4]): stabilizes most segments of the receptor
- zinc concentration above which the stability of rhodopsin increased (rhodopsin [2]; [5]): above 50 μM
- zinc concentration giving the highest stability of dark state rhodopsin (rhodopsin [2]; [5]): 200 µM
- effect on occurrence probabilities of the unfolding pathways (rhodopsin [2]; zinc 10, 25, 50, 100, 200 and 400 μM, other metal ions 200 μM): leads to a change in the occurrence probabilities of the unfolding pathways
- effect on ratio of intact to broken Cys110-Cys187 disulfide bonds (65 nm vs 95 nm rhodopsin) [3]: favour the level of 65 nm rhodopsin
- effect on ratio of intact to broken Cys110-Cys187 disulfide bonds (65 nm vs 95 nm rhodopsin) ([3]; listed as Zn^2+): clearly stabilizes the disulfide bond in a concentration dependent manner

Molecule: CCN1C(=O)C=CC1=O [N-ethylmaleimide]
- fold increase in the proportion of the 65 nm curves [3, 6]: 3.5 fold
- fraction of total rhodopsin molecules that lack the Cys110-Cys187 bond [3, 6]: ⅛

Molecule: [Ca+2].[Cl-].[Cl-] [calcium, CaCl2]
- effect on stability of rhodopsin segments (difference in unfolding force relative to 0 μM Zn^2+) (rhodopsin [2]; [4]): destabilize the majority of the segments
- effect on stability of rhodopsin segments (difference in unfolding force relative to 0 μM Zn^2+) (rhodopsin [2]; 200 μM metal ion in buffer, FIG. 3A, listed as Ca^2+): destabilize or have no effect on the majority of the segments

Molecule: [Cl-].[Cl-].[Co+2] [cobalt, CoCl2]
- effect on stability of rhodopsin segments (difference in unfolding force relative to 0 μM Zn^2+) (rhodopsin [2]): destabilize the majority of the segments; also recorded: destabilize or have no effect on the majority of the segments

Molecule: [Cl][Cd][Cl] [cadmium, CdCl2]
- effect on stability of rhodopsin segments (difference in unfolding force relative to 0 μM Zn^2+) (rhodopsin [2]; [4]): destabilize the majority of the segments
- effect on stability of rhodopsin segments (difference in unfolding force relative to 0 μM Zn^2+) (rhodopsin [2]; 200 μM metal ion in buffer, FIG. 3A, listed as Cd^2+): destabilize or have no effect on the majority of the segments

Molecule: [Cl-].[Cl-].[Mg+2] [magnesium, MgCl2]
- effect on the stability of rhodopsin (rhodopsin [2]; 25 mM Mg^2+, FIG. 3B): almost no effect

From patent US20090253589A1, “Method for Testing Active Compounds” (Nambition GmbH, priority 2006, published 2009)
